From ChEMBL document CHEMBL5257089, “Gamabufotalin Induces Apoptosis and Cytoprotective Autophagy through the mTOR Signaling Pathway in Hepatocellular Carcinoma” (J Nat Prod, 2023)
Residues, ends and D or L forms follow the SMILES beside them. *: point of attachment. Cbz = O=C(OCc1ccccc1)*; CH2F = FC*

Tests used:
Format in all cases: functional
[1] = system: Hep 3B2; experiment: Induction of apoptosis in human Hep3B cells assessed as viable cells at 10 nM measured after 48 hrs by annexin V-FITC/Propidium iodide staining based flow cytometric analysis (reference value: 95.6%); settings: read-out: Activity
[2] = system: Hep 3B2; experiment: Induction of apoptosis in human Hep3B cells assessed as early apoptotic cells at 10 nM measured after 48 hrs by annexin V-FITC/Propidium iodide staining based flow cytometric analysis (reference value: 1.6%)
[3] = system: Hep 3B2; experiment: Induction of apoptosis in human Hep3B cells assessed as late apoptotic cells at 10 nM measured after 48 hrs by annexin V-FITC/Propidium iodide staining based flow cytometric analysis (reference value: 2.4%)
[4] = system: Hep 3B2; experiment: Induction of apoptosis in human Hep3B cells assessed as necrotic cells at 10 nM measured after 48 hrs by annexin V-FITC/Propidium iodide staining based flow cytometric analysis (reference value: 0.3%)
[5] = system: Hep 3B2; experiment: Induction of apoptosis in human Hep3B cells assessed as viable cells at 10 nM measured after 48 hrs in presence of gamabufotalin by annexin V-FITC/Propidium iodide staining based flow cytometric analysis (reference value: 95.6%); settings: read-out: Activity
[6] = system: Hep 3B2; experiment: Induction of apoptosis in human Hep3B cells assessed as early apoptotic cells at 10 nM measured after 48 hrs in presence of gamabufotalin by annexin V-FITC/Propidium iodide staining based flow cytometric analysis (reference value: 1.6%)
[7] = system: Hep 3B2; experiment: Induction of apoptosis in human Hep3B cells assessed as late apoptotic cells at 10 nM measured after 48 hrs in presence of gamabufotalin by annexin V-FITC/Propidium iodide staining based flow cytometric analysis (reference value: 2.4%)
[8] = system: Hep 3B2; experiment: Induction of apoptosis in human Hep3B cells assessed as necrotic cells at 10 nM measured after 48 hrs in presence of gamabufotalin by annexin V-FITC/Propidium iodide staining based flow cytometric analysis (reference value: 0.3%)
[9] = system: Huh-7; experiment: Induction of apoptosis in human Huh-7 cells assessed as viable cells at 10 nM measured after 48 hrs by annexin V-FITC/Propidium iodide staining based flow cytometric analysis (reference value: 91.7%); settings: read-out: Activity
[10] = system: Huh-7; experiment: Induction of apoptosis in human Huh-7 cells assessed as early apoptotic cells at 10 nM measured after 48 hrs by annexin V-FITC/Propidium iodide staining based flow cytometric analysis (reference value: 2.2%)
[11] = system: Huh-7; experiment: Induction of apoptosis in human Huh-7 cells assessed as late apoptotic cells at 10 nM measured after 48 hrs by annexin V-FITC/Propidium iodide staining based flow cytometric analysis (reference value: 6.1%)
[12] = system: Huh-7; experiment: Induction of apoptosis in human Huh-7 cells assessed as necrotic cells at 10 nM measured after 48 hrs by annexin V-FITC/Propidium iodide staining based flow cytometric analysis (reference value: 0.0%)
[13] = system: Huh-7; experiment: Induction of apoptosis in human Huh-7 cells assessed as viable cells at 10 nM measured after 48 hrs in presence of gamabufotalin by annexin V-FITC/Propidium iodide staining based flow cytometric analysis (reference value: 91.7%); settings: read-out: Activity
[14] = system: Huh-7; experiment: Induction of apoptosis in human Huh-7 cells assessed as early apoptotic cells at 10 nM measured after 48 hrs in presence of gamabufotalin by annexin V-FITC/Propidium iodide staining based flow cytometric analysis (Rvb =2.2%)
[15] = system: Huh-7; experiment: Induction of apoptosis in human Huh-7 cells assessed as late apoptotic cells at 10 nM measured after 48 hrs in presence of gamabufotalin by annexin V-FITC/Propidium iodide staining based flow cytometric analysis (reference value: 6.1%)
[16] = system: Huh-7; experiment: Induction of apoptosis in human Huh-7 cells assessed as necrotic cells at 10 nM measured after 48 hrs in presence of gamabufotalin by annexin V-FITC/Propidium iodide staining based flow cytometric analysis (reference value: 0.0%)

`CC(C)[C@H](NC(=O)OCc1ccccc1)C(=O)N[C@@H](C)C(=O)N[C@@H](CC(=O)O)C(=O)CF` (Cbz-Val-Ala-Asp-CH2F) gave a viability at 0.01 µM [1] of 93.5%, an Activity [2] of 2.6% and an Activity [3] of 3.6%. The Activity [4] was 0.3%, the viability at 0.01 µM [5] was 91.9% and the Activity [6] was 4.4%. For the same compound, the Activity [7] was 3.5%, the Activity [8] was 0.3% and the viability at 0.01 µM [9] was 90.3%. The Activity [10] was 2.7%, the Activity [11] was 6.9% and the Activity [12] was 0.1%. The viability at 0.01 µM [13] was 89%, the Activity [14] was 3.3% and the Activity [15] was 7.4%. It also gave an Activity [16] of 0.3%.
